Tested on: SEM cells
Experiment: cell viability relative to DMSO control; higher = less cytotoxic
Conditions: 48 h
Summary of the method: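 Cells were incubated for 48 h at 37°C before CellTiter-Glo One luminescence was read. The cells were NOMO1 or SEM (500 cells/well) or P12-Ichikawa (1000 cells/well) leukemia cells, adapted for at least four passages in each medium and seeded in 1536-well plates (5 μl). Dosing used library compounds in DMSO applied by pin over 11 threefold points, 47 μM to 0.79 nM. Viability is the per-plate percentage of DMSO wells, with cell-free wells as background.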

[1] = HPLM + 10% dialyzed FBS, 0.000781 µM
[2] = HPLM + 10% dialyzed FBS, 0.00234 µM
[3] = HPLM + 10% dialyzed FBS, 0.00702 µM
[4] = HPLM + 10% dialyzed FBS, 0.0211 µM
[5] = HPLM + 10% dialyzed FBS, 0.0632 µM
[6] = HPLM + 10% dialyzed FBS, 0.19 µM
[7] = HPLM + 10% dialyzed FBS, 0.569 µM
[8] = HPLM + 10% dialyzed FBS, 1.71 µM
[9] = HPLM + 10% dialyzed FBS, 5.12 µM
[10] = HPLM + 10% dialyzed FBS, 15.4 µM
[11] = HPLM + 10% dialyzed FBS, 46.1 µM
[12] = RPMI 5 mM glucose + 10% dialyzed FBS, 0.000781 µM
[13] = RPMI 5 mM glucose + 10% dialyzed FBS, 0.00234 µM
[14] = RPMI 5 mM glucose + 10% dialyzed FBS, 0.00702 µM
[15] = RPMI 5 mM glucose + 10% dialyzed FBS, 0.0211 µM
[16] = RPMI 5 mM glucose + 10% dialyzed FBS, 0.0632 µM
[17] = RPMI 5 mM glucose + 10% dialyzed FBS, 0.19 µM
[18] = RPMI 5 mM glucose + 10% dialyzed FBS, 0.569 µM
[19] = RPMI 5 mM glucose + 10% dialyzed FBS, 1.71 µM
[20] = RPMI 5 mM glucose + 10% dialyzed FBS, 5.12 µM
[21] = RPMI 5 mM glucose + 10% dialyzed FBS, 15.4 µM
[22] = RPMI 5 mM glucose + 10% dialyzed FBS, 46.1 µM
[23] = RPMI 5 mM glucose + 10% FBS, 0.000781 µM
[24] = RPMI 5 mM glucose + 10% FBS, 0.00234 µM
[25] = RPMI 5 mM glucose + 10% FBS, 0.00702 µM
[26] = RPMI 5 mM glucose + 10% FBS, 0.0211 µM
[27] = RPMI 5 mM glucose + 10% FBS, 0.0632 µM
[28] = RPMI 5 mM glucose + 10% FBS, 0.19 µM
[29] = RPMI 5 mM glucose + 10% FBS, 0.569 µM
[30] = RPMI 5 mM glucose + 10% FBS, 1.71 µM
[31] = RPMI 5 mM glucose + 10% FBS, 5.12 µM
[32] = RPMI 5 mM glucose + 10% FBS, 15.4 µM
[33] = RPMI 5 mM glucose + 10% FBS, 46.1 µM

Row | SMILES | cell viability [1] [%] | cell viability [2] [%] | cell viability [3] [%] | cell viability [4] [%] | cell viability [5] [%] | cell viability [6] [%] | cell viability [7] [%] | cell viability [8] [%] | cell viability [9] [%] | cell viability [10] [%] | cell viability [11] [%] | cell viability [12] [%] | cell viability [13] [%] | cell viability [14] [%] | cell viability [15] [%] | cell viability [16] [%] | cell viability [17] [%] | cell viability [18] [%] | cell viability [19] [%] | cell viability [20] [%] | cell viability [21] [%] | cell viability [22] [%] | cell viability [23] [%] | cell viability [24] [%] | cell viability [25] [%] | cell viability [26] [%] | cell viability [27] [%] | cell viability [28] [%] | cell viability [29] [%] | cell viability [30] [%] | cell viability [31] [%] | cell viability [32] [%] | cell viability [33] [%]
1 | CCC(C)N1\N=C/N(C1=O)C2=CC=C(C=C2)N3CCN(CC3)C4=CC=C(OC[C@H]5CO[C@@](C[N]6C=NC=N6)(O5)C7=CC=C(Cl)C=C7Cl)C=C4 (stereo partly drawn) | 94.1 | 106 | 119 | 116 | 119 | 124 | 105 | 122 | 120 | 112 | 107 | 78.4 | 116 | 115 | 116 | 113 | 98.6 | 109 | 115 | 115 | 117 | 105 |  |  |  |  |  |  |  |  |  |  | 
2 | Cc1c(-c2cccc3c(CCCOc4cccc5ccccc45)c(C(=O)O)n(Cc4cccnc4)c23)c(COc2ccc(N3CCN([S+](=O)([O-])N(C)C)CC3)cc2)nn1C | 92.3 | 99.5 | 85.1 | 85.2 | 104 | 82.8 | 83.5 | 97.6 | 81 | 79.2 | 48.3 | 107 | 99.1 | 80.5 | 83.2 | 100 | 91.5 | 109 | 96.5 | 77.1 | 70 | 43 | 100 | 108 | 86.2 | 129 | 111 | 128 | 112 | 114 | 102 | 95.5 | 54.8
3 | O=C(CC12CC3CC(CC(C3)C1)C2)Nc1cccc2nc(NCCNCCO)ccc12 | 81.1 | 82.1 | 73.8 | 96.5 | 78.2 | 77.8 | 93.8 | 64.1 | 84.6 | 101 | 36.3 | 82.8 | 87.7 | 65.3 | 94.8 | 81.6 | 72.5 | 102 | 78.7 | 94.6 | 82.6 | 40 | 90.5 | 99.3 | 83.6 | 96.3 | 75.6 | 76.1 | 94.4 | 83.3 | 82.7 | 101 | 21.9
4 | C[C@H]1C[C@H]2[C@@H]3CC[C@](O)(C(=O)CO)[C@@]3(C)C[C@H](O)[C@@H]2[C@@]\4(C)/C=C\C(=O)\C=C14 | 78.4 | 85 | 76.7 | 87.1 | 86.2 | 75.6 | 57.1 | 41.3 | 47.4 | 46.9 | 42.6 | 90.6 | 92.4 | 101 | 95.7 | 93.2 | 96.3 | 72.1 | 40.9 | 45.7 | 45 | 33.3 | 76.9 | 104 | 90 | 101 | 90.5 | 102 | 71.3 | 39.2 | 51.5 | 51.2 | 40.2
5 | O=C(CCCCCCC(=O)Nc1ccc([C@H]2O[C@@H](CSc3nc(-c4ccccc4)c(-c4ccccc4)o3)C[C@@H](c3ccc(CO)cc3)O2)cc1)NO |  |  |  |  |  |  |  |  |  |  |  | 113 | 117 | 135 | 135 | 124 | 133 | 130 | 116 | 77.6 | 9.58 | 7.49 | 109 | 124 | 128 | 134 | 121 | 112 | 115 | 114 | 87.4 | 8.6 | 7.11
6 | CC(C)=CCC/C(C)=C/CC/C(C)=C/CSc1ccccc1C(=O)O | 97.5 | 116 | 111 | 97.3 | 93.2 | 81.2 | 80 | 67.3 | 58.3 | 30.3 | 8.4 | 94.6 | 105 | 84.7 | 106 | 97.8 | 99.1 | 74.8 | 71.2 | 62.5 | 33.8 | 8.59 | 118 | 124 | 111 | 119 | 117 | 106 | 96.6 | 71.8 | 62.4 | 22.3 | 2.67
7 | CO[C@@]12[C@H](COC(N)=O)C/3=C(N1C[C@@H]4N[C@H]24)/C(=O)/C(=C(N)\C3=O)C | 123 | 123 | 123 | 114 | 115 | 115 | 125 | 121 | 95.7 | 108 | 81.7 | 131 | 121 | 124 | 112 | 121 | 112 | 116 | 125 | 118 | 114 | 85.3 | 91.7 | 97.2 | 90.7 | 96.2 | 90 | 97.1 | 75.5 | 95.3 | 86.5 | 92.2 | 74
8 | N[S+](=O)([O-])c1cc2c(cc1Cl)NC(C(Cl)Cl)N[S+]2(=O)[O-] (stereo not drawn) | 89 | 95.6 | 98.8 | 86.3 | 105 | 103 | 102 | 91.5 | 111 | 116 | 111 | 95.1 | 108 | 113 | 102 | 124 | 122 | 121 | 132 | 142 | 106 | 125 | 103 | 110 | 90.3 | 107 | 114 | 113 | 122 | 123 | 115 | 129 | 109
9 | CC(=O)OC[C@H]1O[C@@H]([S-])[C@H](OC(C)=O)[C@@H](OC(C)=O)[C@@H]1OC(C)=O.CCP(CC)CC.[Au+] | 73.4 | 72.8 | 68.7 | 82.1 | 73.6 | 97.6 | 84 | 83.1 | 15.9 | 6.62 | 6.21 | 78.4 | 85.1 | 78.6 | 80.1 | 77.6 | 87.2 | 84.5 | 69.4 | 7.37 | 6.42 | 5.84 | 91.1 | 75 | 87.3 | 84.8 | 77.8 | 105 | 101 | 88.5 | 6.02 | 6.28 | 5.83
10 | C/C(=N\NC(=S)N1CCC1)c1ccccn1 | 98.2 | 65.1 | 24 | 16.3 | 8.49 | 7 | 6.15 | 4.65 | 3.75 | 2.98 | 4.69 | 110 | 53.4 | 19.2 | 15.8 | 6.49 | 6.19 | 5.7 | 4.26 | 3.13 | 1.84 | 2.93 | 102 | 77.1 | 23.7 | 12.9 | 6.82 | 6.63 | 5.22 | 3.59 | 2.32 | 1.6 | 3.57
11 | O=C/1NC(=O)C(=C1C2=CN=C3C=CC=C[N]23)/C4=C[N]5CCN(CC6=C5C4=CC=C6)C(=O)N7CCOCC7 | 111 | 104 | 62.9 | 14.5 | 14.7 | 14.1 | 13.7 | 11.3 | 10.6 | 9.94 | 10.3 | 101 | 102 | 63.8 | 22.2 | 17.1 | 13.1 | 16.3 | 14 | 14.6 | 11.1 | 10.6 | 96.7 | 106 | 65.2 | 17.9 | 14.7 | 16.1 | 15 | 12.4 | 13.8 | 13.1 | 12.8
12 | CCOc1cc2ncc(C#N)c(Nc3ccc(F)c(Cl)c3)c2cc1NC(=O)/C=C/CN(C)C | 88.3 | 118 | 120 | 123 | 118 | 73.1 | 71 | 55.6 | 37.4 | 20.1 | 4.15 | 79.9 | 115 | 131 | 120 | 126 | 66.2 | 67.3 | 52 | 29.9 | 11.7 | 3.53 | 75.1 | 110 | 108 | 114 | 116 | 58.9 | 52.1 | 40.2 | 24.5 | 11.5 | 3.17
13 | N\C1=N\C2=C(N=C[N]2COCCO)C(=O)N1 | 93.7 | 101 | 97.2 | 103 | 100 | 99.7 | 111 | 104 | 89.5 | 77.3 | 60.5 | 83 | 93.9 | 95.9 | 94.3 | 95.1 | 115 | 90.1 | 101 | 88.2 | 73.3 | 44.8 | 87 | 107 | 106 | 112 | 101 | 104 | 115 | 117 | 106 | 93.4 | 56.5
14 | CCc1cc2c(cc1N1CCC(N3CCOCC3)CC1)C(C)(C)c1[nH]c3cc(C#N)ccc3c1C2=O | 60.6 | 55 | 70.7 | 102 | 122 | 121 | 114 | 99 | 95.6 | 70.2 | 28.1 | 60.3 | 54.3 | 73.8 | 97.7 | 111 | 129 | 103 | 114 | 108 | 70.8 | 20.3 | 53.8 | 49.4 | 71.1 | 77.1 | 107 | 107 | 103 | 96.7 | 88.3 | 46.7 | 12.8
15 | CC(C)(F)C[C@H](N[C@@H](c1ccc(-c2ccc([S+](C)(=O)[O-])cc2)cc1)C(F)(F)F)C(=O)NC1(C#N)CC1 | 88.3 | 93.8 | 93.1 | 96.1 | 95.9 | 91 | 96.3 | 97.5 | 104 | 95.9 | 91.6 | 105 | 117 | 124 | 107 | 119 | 126 | 108 | 114 | 115 | 123 | 103 | 90.4 | 116 | 112 | 117 | 114 | 105 | 93.1 | 109 | 96.5 | 90.3 | 85.8
